{
  "source": "ChEMBL document CHEMBL1828521",
  "about": "“New azole antifungal agents with novel modes of action: synthesis and biological studies of new tridentate ligands based on pyrazole and triazole” (2011)",
  "key": {"[1]": {"system": "Saccharomyces cerevisiae", "assay": "Antifungal activity against Saccharomyces cerevisiae BY4741 assessed as reduction in cell growth at 1 mM", "assay_type": "functional, organism-based"}, "[2]": {"system": "Saccharomyces cerevisiae", "assay": "Antifungal activity against xrs2-deficient Saccharomyces cerevisiae BY4741 at 0.85 to 1.14 mM after 3 days by serial dilution method", "assay_type": "functional, organism-based"}, "[3]": {"system": "Saccharomyces cerevisiae", "assay": "Antifungal activity against Saccharomyces cerevisiae BY4741 assessed as inhibition of replication at 1 mM", "assay_type": "functional, organism-based"}, "[4]": {"system": "Saccharomyces cerevisiae", "assay": "Antifungal activity against Saccharomyces cerevisiae BY4741 expressing Rad52-GFP assessed as increase in appearance of Rad52 foci in S-phase by epifluorescence microscopy", "assay_type": "functional, organism-based"}, "[5]": {"system": "Saccharomyces cerevisiae", "assay": "Induction of cell cycle arrest at G1-phase in Saccharomyces cerevisiae BY4741 at 1 mM after 180 mins by flow cytometric analysis", "assay_type": "functional, organism-based"}, "[6]": {"system": "Saccharomyces cerevisiae", "assay": "Antifungal activity against ski2-deficient Saccharomyces cerevisiae BY4741 at 0.85 to 1.14 mM after 3 days by serial dilution method", "assay_type": "functional, organism-based"}, "[7]": {"system": "Saccharomyces cerevisiae", "assay": "Antifungal activity against Saccharomyces cerevisiae BY4741 expressing Rad52-GFP assessed as increase in appearance of Rad52 foci in G1 phase by epifluorescence microscopy", "assay_type": "functional, organism-based"}, "[8]": {"system": "Saccharomyces cerevisiae", "assay": "Antifungal activity against top3-deficient Saccharomyces cerevisiae BY4741 at 0.85 to 1.14 mM after 3 days by serial dilution method", "assay_type": "functional, organism-based"}, "[9]": {"system": "Saccharomyces cerevisiae", "assay": "Antifungal activity against PKC1-deficient Saccharomyces cerevisiae BY4741 by Haploinsufficiency-profiling assay", "assay_type": "functional, organism-based"}, "[10]": {"system": "Saccharomyces cerevisiae", "assay": "Antifungal activity against Saccharomyces cerevisiae BY4741 expressing Rad52-GFP assessed as appearance of Rad52 foci by epifluorescence microscopy", "assay_type": "functional, organism-based"}, "[11]": {"system": "Saccharomyces cerevisiae", "assay": "Antifungal activity against Saccharomyces cerevisiae BY4741 expressing Rad52-GFP assessed as increase in appearance of Rad52 foci in G2/M phase by epifluorescence microscopy", "assay_type": "functional, organism-based"}, "[12]": {"system": "Saccharomyces cerevisiae", "assay": "Induction of cell cycle arrest at G1-phase in Saccharomyces cerevisiae BY4741 assessed as accumulation of 1C DNA content at 1 mM after 180 mins by flow cytometric analysis", "assay_type": "functional, organism-based"}, "[13]": {"system": "Saccharomyces cerevisiae", "assay": "Antifungal activity against wild-type Saccharomyces cerevisiae BY4741 at 1.14 mM after 3 days by serial dilution method", "assay_type": "functional, organism-based"}, "[14]": {"system": "Saccharomyces cerevisiae", "assay": "Antifungal activity against top3-deficient Saccharomyces cerevisiae BY4741 at 1 to 1.4 mM after 3 days by serial dilution method", "assay_type": "functional, organism-based"}, "[15]": {"system": "Saccharomyces cerevisiae", "assay": "Antifungal activity against wild-type Saccharomyces cerevisiae BY4741 at 1.4 mM by serial dilution method", "assay_type": "functional, organism-based"}, "[16]": {"system": "Saccharomyces cerevisiae", "assay": "Antifungal activity against Saccharomyces cerevisiae BY4741 assessed as large budded cells at 1 mM (reference value: 39.4%)", "assay_type": "functional"}, "[17]": {"system": "Saccharomyces cerevisiae", "assay": "Antifungal activity against xrs2-deficient Saccharomyces cerevisiae BY4741 at 1 to 1.4 mM after 3 days by serial dilution method", "assay_type": "functional, organism-based"}, "[18]": {"system": "Saccharomyces cerevisiae", "assay": "Antifungal activity against ski2-deficient Saccharomyces cerevisiae BY4741 at 1 to 1.4 mM after 3 days by serial dilution method", "assay_type": "functional, organism-based"}, "[19]": {"system": "Saccharomyces cerevisiae", "assay": "Cell cycle arrest at G1-phase in Saccharomyces cerevisiae BY4741 assessed as accumulation of […] DNA content at 290 uM after 180 mins by flow cytometric analysis", "assay_type": "functional, organism-based"}, "[20]": {"system": "Saccharomyces cerevisiae", "assay": "Antifungal activity against Saccharomyces cerevisiae BY4741 assessed as increase in unbudded cells at 1 mM (reference value: 38.5%)", "assay_type": "functional"}, "[21]": {"system": "Saccharomyces cerevisiae", "assay": "Cell cycle arrest in Saccharomyces cerevisiae BY4741 assessed as accumulation of cells with […] DNA content at G1 phase at 290 uM for 8 hrs by flow cytometric analysis", "assay_type": "functional, organism-based"}, "[22]": {"system": "Saccharomyces cerevisiae", "assay": "Antifungal activity against Saccharomyces cerevisiae BY4741 assessed as small budded cells at 1 mM (reference value: 22%)", "assay_type": "functional"}},
  "note": "Calls of active or inactive are those of the source. The rule behind the calls is not given here.",
  "data": [
    {"smiles": "Cc1cc(C)[nH]n1", "values": [
      {"measurement": "Activity", "setting": "[1]", "result": "inactive"}
    ]},
    {"smiles": "Cc1cc(C)n(CO)n1", "values": [
      {"measurement": "Activity", "setting": "[1]", "result": "Active"}
    ]},
    {"smiles": "CCN(CC)CCCN(Cn1cncn1)Cn1cncn1", "values": [
      {"measurement": "Activity", "setting": "[2]", "result": "Active"},
      {"measurement": "Activity", "setting": "[3]", "result": "Active"},
      {"measurement": "Activity", "setting": "[4]", "result": "Active"},
      {"measurement": "Activity", "setting": "[5]", "result": "Active"},
      {"measurement": "Activity", "setting": "[6]", "result": "Active"},
      {"measurement": "Activity", "setting": "[7]", "result": "Active"},
      {"measurement": "Activity", "setting": "[8]", "result": "Active"},
      {"measurement": "Activity", "setting": "[9]", "result": "Active"},
      {"measurement": "Activity", "setting": "[10]", "result": "Active"},
      {"measurement": "Activity", "setting": "[11]", "result": "Active"},
      {"measurement": "Activity", "setting": "[12]", "result": "Active"},
      {"measurement": "Activity", "setting": "[13]", "result": "inactive"},
      {"measurement": "Activity", "setting": "[1]", "result": "Active"}
    ]},
    {"smiles": "CCN(CC)CCCN(Cn1nc(C)cc1C)Cn1nc(C)cc1C", "values": [
      {"measurement": "Activity", "setting": "[14]", "result": "Active"},
      {"measurement": "Activity", "setting": "[15]", "result": "inactive"},
      {"measurement": "Activity", "setting": "[4]", "result": "Active"},
      {"measurement": "Activity", "setting": "[16]", "result": 38.7, "unit": "%"},
      {"measurement": "Activity", "setting": "[17]", "result": "Active"},
      {"measurement": "Activity", "setting": "[18]", "result": "Active"},
      {"measurement": "Activity", "setting": "[7]", "result": "Active"},
      {"measurement": "Activity", "setting": "[19]", "result": "Active"},
      {"measurement": "Activity", "setting": "[20]", "result": 51.5, "unit": "%"},
      {"measurement": "Activity", "setting": "[10]", "result": "Active"},
      {"measurement": "Activity", "setting": "[11]", "result": "Active"},
      {"measurement": "Activity", "setting": "[21]", "result": "Active"},
      {"measurement": "Activity", "setting": "[22]", "result": 9.7, "unit": "%"},
      {"measurement": "Activity", "setting": "[1]", "result": "Active"}
    ]}
  ]
}
